In the NIST ThermoML archive (doi:10.1016/j.jct.2009.04.015):
Several values for one entry are separate records, joined by “and”; a condition that tells them apart may be missing. Identical values can stand only once.

Settings: Crystal, Calculated from knudsen effusion weight loss

Cc1cc(O)cc(O)c1 [5-methyl-1,3-benzenediol]
Settings	vapor or sublimation pressure
322.2 K	0.000157 kPa and 0.000153 kPa
324.16 K	0.000199 kPa and 0.000196 kPa and 0.000193 kPa
326.1 K	0.000246 kPa and 0.000245 kPa
328.2 K	0.000304 kPa and 0.000311 kPa and 0.000303 kPa
330.14 K	0.000394 kPa and 0.000383 kPa and 0.000378 kPa
332.1 K	0.000499 kPa and 0.000485 kPa and 0.000482 kPa
334.19 K	0.000607 kPa and 0.000596 kPa and 0.000591 kPa
336.13 K	0.000766 kPa and 0.000754 kPa and 0.000734 kPa
338.1 K	0.000974 kPa and 0.000935 kPa and 0.000932 kPa

Cc1c(O)cccc1O [1,3-dihydroxy-2-methylbenzene]
Settings	vapor or sublimation pressure
309.22 K	0.000109 kPa and 0.000107 kPa and 0.000103 kPa
311.2 K	0.000141 kPa and 0.000136 kPa and 0.000132 kPa
313.12 K	0.000176 kPa and 0.000172 kPa and 0.000171 kPa
315.21 K	0.000224 kPa and 0.000217 kPa and 0.000227 kPa
317.12 K	0.000287 kPa and 0.00028 kPa and 0.000276 kPa
319.2 K	0.000358 kPa and 0.00035 kPa and 0.000341 kPa
321.19 K	0.000456 kPa and 0.000446 kPa and 0.000437 kPa
323.12 K	0.000578 kPa and 0.000559 kPa and 0.000553 kPa
325.21 K	0.000724 kPa and 0.000694 kPa and 0.000673 kPa
327.17 K	0.000896 kPa and 0.000883 kPa and 0.000851 kPa
329.11 K	0.001115 kPa and 0.001099 kPa and 0.001081 kPa

Cc1ccc(O)cc1O [1,3-benzenediol, 4-methyl-]
Settings	vapor or sublimation pressure
317.2 K	0.000134 kPa and 0.000129 kPa and 0.000128 kPa
319.22 K	0.000175 kPa and 0.00017 kPa and 0.000166 kPa
321.11 K	0.00022 kPa and 0.000215 kPa and 0.000211 kPa
323.21 K	0.000266 kPa and 0.000262 kPa and 0.000282 kPa
325.23 K	0.000361 kPa and 0.000344 kPa and 0.000336 kPa
327.13 K	0.000451 kPa and 0.000438 kPa and 0.000432 kPa
329.21 K	0.000572 kPa and 0.000562 kPa and 0.000561 kPa
331.21 K	0.000742 kPa and 0.000724 kPa and 0.000719 kPa
333.12 K	0.000933 kPa and 0.000916 kPa and 0.000886 kPa

Cc1cc(O)ccc1O [1,4-benzenediol, 2-methyl-]
Settings	vapor or sublimation pressure
325.21 K	0.000147 kPa and 0.000144 kPa and 0.000138 kPa
327.15 K	0.000189 kPa and 0.000182 kPa and 0.000173 kPa
329.11 K	0.000239 kPa and 0.000229 kPa and 0.000226 kPa
331.19 K	0.000292 kPa and 0.000277 kPa and 0.000298 kPa
333.14 K	0.000375 kPa and 0.000361 kPa and 0.000348 kPa
335.11 K	0.000481 kPa and 0.000462 kPa and 0.000448 kPa
337.2 K	0.00061 kPa and 0.000607 kPa and 0.000569 kPa
339.14 K	0.000751 kPa and 0.000731 kPa and 0.000704 kPa
341.12 K	0.000957 kPa and 0.000916 kPa and 0.00089 kPa
